# Patent US5376673A, “Isoindoles having cardiovascular activity” (Italfarmaco S.p.A., priority 1991, dated 1994)
# Assays:
# rabbit aorta = experiment: In vitro vasorelaxing activity (aorta strip contracted with noradrenaline); conditions: Oryctolagus cuniculus, contraction induced by noradrenaline
# Experimental: The vasorelaxing activity of the compounds of the invention was determined on rabbit aorta which had been contracted with noradrenaline, according to the method described in Eur. J. Pharmacol, 141, 195 (1987).
# IC50 = concentration of active substance, expressed in mole/liter,
# able to inhibit by 50% the contraction of the aorta "strip" induced by […]
# [1] = test system: Sprague Dawley anaesthetized rats; experiment: Vasopressine angina in the anaesthetized rat (in vivo antianginal activity); parameters: species or system Sprague Dawley rat; conditions: 3 mg/kg by gastric gavage, 1 hour before Arg-vasopressin i.v.
# Experimental: The in vivo antianginal activity was evidenced on Sprague Dawley anaesthetized rats, weighing 350-400 g, operating according to the procedure of M. Leitold et al., Arzneim. Forsch. 36, 1454, 1986. The test was carried out administering the animal intravenously with 1 I. U./kg, equivalent to […] of Arg-vasopressin, which induces a coronary spasm which can be reproduced and evidenced electrocardiographycally with an increase in the amplitude of the T wave. The compounds of the invention were admininistered by gastric gavage at a dose of 3 mg/kg, 1 hour before administration of Argvasopressin. The antianginal effect was expressed as percent inhibition of the T wave increase versus controls.
SMILES,IC50 (rabbit aorta) [nM],Effect (percent inhibition of the T wave increase versus controls) [1] [%]
"CC(=O)OC1c2ccccc2C(=O)N1CCO[N+](=O)[O-] (centres unmarked) [Example 2, 3-Acetoxy-2-(2-nitrooxyethyl)-1-oxoisoindolin]",1200,
CCCC(=O)OC1c2ccccc2C(=O)N1CCO[N+](=O)[O-] (centres unmarked) [Example 3],2400,-55.2
"O=C1c2ccccc2C(O)N1CCCCCO[N+](=O)[O-] (centres unmarked) [Example 5, 3-Hydroxy-2-(5-nitrooxypentyl)-1-oxoisoindolin]",13000,

# Now from value to compound, other results behind:
IC50 (rabbit aorta) [nM],SMILES,Effect (percent inhibition of the T wave increase versus controls) [1] [%]
1300,"O=C1c2ccccc2C(O)N1CCO[N+](=O)[O-] (centres unmarked) [Example 1, 3-Hydroxy-2-(2-nitrooxyethyl)-1-oxoisoindolin]",-56.1
3200,"O=C(OC1c2ccccc2C(=O)N1CCO[N+](=O)[O-])c1ccccc1 (centres unmarked) [Example 4, 3-Benzoyloxy-2-(5-nitrooxyethyl)-1-oxoisoindolin]",-34.5
